The values that follow come from ChEMBL document CHEMBL1129792, “Synthesis and structure-activity relationships of 1,2,3,4-tetrahydroquinoline-2,3,4-trione 3-oximes: novel and highly potent antagonists for NMDA receptor glycine site” (J Med Chem, 1996).

In test [1] the target is Glutamate receptor ionotropic, NMDA 1 (Rattus norvegicus, UniProt P35439). Put plainly: Inhibition of [3H]- DCKA binding to NMDA receptor of rat brain membranes. The format is cell membranes, Membrane.
Test [2] has as its target Glutamate receptor ionotropic, AMPA (Rattus norvegicus) (UniProt P19491+P19492+P19493+P19490). Put plainly: Inhibition of Ionotropic glutamate receptor AMPA in xenopus oocytes expressing the rat cerebral cortex poly(A+) RNA. As to conditions: Oocyte. The format is cell-based.
The nature of test [3]: Functional antagonism of NR1a/2C N-methyl-D-aspartate glutamate receptor of rat membrane expressed in Xenopus oocytes. As to conditions: Oocyte.
Test [4] in a line: Steady state Selectivity index for inhibition at NMDA receptor glycine site was estimated by dividing Kb (AMPA) by Kb (NMDA).

For the molecule `Oc1nc2ccccc2nc1O`, the IC50 – broadly, the point on the concentration scale where inhibition reaches its midpoint – in test [1] is 9800 nM. The same measure, in the same setting: in the case of `Cc1cc(C)c2c(O)c(N=O)c(=O)[nH]c2c1` it was 37 nM; in that of `O=Nc1c(O)c2c(Cl)cc(Cl)cc2[nH]c1=O`, 33 nM; in that of `O=Nc1c(O)nc2cccc(Cl)c2c1O`, 4400 nM.

In test [1], `Oc1nc2cc(F)c(Cl)c(F)c2nc1O` displayed an IC50 of 630 nM.

`O=Nc1c(O)nc2cc(Cl)ccc2c1O`: the Kb in test [2] was determined as 740 nM; in test [3], 86 nM. In test [1], this molecule gave an IC50 of 53 nM. The Selectivity in test [4] was 8.6.

Turning to `O=Nc1c(O)nc2cc(Cl)cc(Cl)c2c1O`, the Kb in test [2] is 600 nM; in test [3], 47 nM. Also, in test [4], the Selectivity was 13. With `Cc1cc(C)c2nc(O)c(O)nc2c1`, the IC50 in test [1] was 2100 nM. In turn, `Oc1nc2cc(Cl)c(Cl)cc2nc1O` [2,3-DIHYDROXY-6,7-DICHLOROQUINOXALINE] registered an IC50 in test [1] of 130 nM. In test [3], this molecule displayed a Kb of 380 nM. Turning to `O=c1[nH]c2c(F)c(F)c(F)c(F)c2[nH]c1=O`, the half-maximal inhibitory concentration (IC50) in test [1] is 730 nM.

Molecule `O=Nc1c(O)c2cc(Cl)ccc2[nH]c1=O` came in with a half-inhibitory concentration (IC50) in test [1] of 3400 nM. Regarding `O=Nc1c(O)nc2cc(Cl)c(Cl)c(Cl)c2c1O`, the Kb was determined as 180 nM in test [2] and 22 nM in test [3]. In test [1], this molecule showed an IC50 of 7 nM. For `O=Nc1c(O)nc2ccccc2c1O`, the IC50 in test [1] stood at 1400 nM. Still for that read-out and setting: for `O=Nc1c(O)c2c(F)c(F)c(F)c(F)c2[nH]c1=O` the value was 3300 nM. Regarding `Oc1nc2cc(Cl)cc(Cl)c2nc1O`, in test [1], the IC50 amounted to 280 nM. The molecule further yielded a Kb in test [3] of 730 nM. The matching figures for `Oc1nc2cc(Cl)c(Cl)c(Cl)c2nc1O`: 30 nM and 82 nM. `O=Nc1c(O)c2cc(F)c(Cl)c(F)c2[nH]c1=O`: the IC50 in test [1] was 910 nM. The same measure, in the same setting: for `O=Nc1c(O)nc2c(Cl)cccc2c1O` the value was greater than 100000 nM. Regarding `Cc1cc(C)c2c(O)c(N=O)c(O)nc2c1`, the results for the Kb in test [2] and in test [3] were 2600 nM and 170 nM, respectively. Also, the Selectivity in test [4] is 15. In turn, `O=Nc1c(O)nc2ccc(Cl)c(Cl)c2c1O` registered an IC50 in test [1] of 170 nM. As to `Oc1nc2ccc(Cl)cc2nc1O`, in test [1], the half-maximal inhibitory concentration (IC50) came to 1800 nM. The same molecule displayed a Kb in test [3] of 2600 nM. Regarding `O=Nc1c(O)nc2cc(Cl)c(Cl)cc2c1O`, the Kb in test [2] is 410 nM; in test [3] it was 24 nM. In addition, the half-inhibitory concentration (IC50) in test [1] came out at 12 nM. Besides, the Selectivity in test [4] was 17.
